Article PMC6943578, “Isolation of Novel ACE-Inhibitory and Antioxidant Peptides from Quinoa Bran Albumin Assisted with an In Silico Approach: Characterization, In Vivo Antihypertension, and Molecular Docking” (Molecules, 2019)
Where two headings read alike, the source gives them in different places. Each block holds one compound with its values, some of them ahead of it. Where a SMILES comes first, the peptide text is derived from it.

Assays:
[1] = read-out: ABTS·+ scavenging ability IC50; cited from earlier work
Source text: ABTS·^+ scavenging activity represents the total antioxidant activity of potential antioxidants. […] Moreover, the presence of hydrophobic amino ...

[2] = cited from earlier work
Source text: The presence of some metal ions like Fe^2+ and Cu^2+ can extremely accelerate the oxidative chain reaction of oil and induce the production of more various radicals. […] It was pointed out that amino acid residues such as Pro, Phe, and Arg in the side chain could act a ...

[3] = test system: spontaneously hypertensive rats (SHRs); assay: Body weight of SHRs during administration; format: in vivo, rat; conditions: oral 50, 100, 150 mg/kg once daily, five weeks; p > 0.05
Experimental: Following the method indicated by Zou et al. [26] with some modifications, 20 male SHRs (10 weeks, 230 ± 20 g body weight (bw)) were purchased from Vital River Laboratory Animal Technology Co., Ltd (Beijing, China). After conditioning for one week, the rats were divided into five groups of four rats each. […] High dosage group (150 mg/kg body weight once daily), middle dosage group (100 mg/kg body weight once daily), and low dosage group (50 mg/kg body weight once daily) were orally given the peptide dissolved in 0.9% saline solution via gastric intubation. All of the treatments were conducted for five consecutive weeks. Each week, the systolic blood pressure (SBP) and diastolic blood pressure (DBP) of the rats were measured with a non-invasive blood-pressure apparatus (BP-300A Non-Invasive Blood Pressure Monitoring System, Chengdu, China). The body weight and heart rate of the rats were determined at the same time. At least five readings were recorded and averaged out.

[4] = biological target: T1, ACE (from rabbit lung) (Oryctolagus cuniculus, UniProt P12822); assay: ACE-inhibitory activity, HHL substrate, spectrophotometric; format: biochemical; conditions: synthetic peptide, 37 °C, 1 h, absorbance at 228 nm, from regression of % inhibition vs concentration, repeated at least three times
T1 construct: ACE (from rabbit lung) were purchased from Sigma-Aldrich Co; purchased Sigma-Aldrich Co; host or cells: rabbit lung tissue
T1 sequence (P12822 34-1310): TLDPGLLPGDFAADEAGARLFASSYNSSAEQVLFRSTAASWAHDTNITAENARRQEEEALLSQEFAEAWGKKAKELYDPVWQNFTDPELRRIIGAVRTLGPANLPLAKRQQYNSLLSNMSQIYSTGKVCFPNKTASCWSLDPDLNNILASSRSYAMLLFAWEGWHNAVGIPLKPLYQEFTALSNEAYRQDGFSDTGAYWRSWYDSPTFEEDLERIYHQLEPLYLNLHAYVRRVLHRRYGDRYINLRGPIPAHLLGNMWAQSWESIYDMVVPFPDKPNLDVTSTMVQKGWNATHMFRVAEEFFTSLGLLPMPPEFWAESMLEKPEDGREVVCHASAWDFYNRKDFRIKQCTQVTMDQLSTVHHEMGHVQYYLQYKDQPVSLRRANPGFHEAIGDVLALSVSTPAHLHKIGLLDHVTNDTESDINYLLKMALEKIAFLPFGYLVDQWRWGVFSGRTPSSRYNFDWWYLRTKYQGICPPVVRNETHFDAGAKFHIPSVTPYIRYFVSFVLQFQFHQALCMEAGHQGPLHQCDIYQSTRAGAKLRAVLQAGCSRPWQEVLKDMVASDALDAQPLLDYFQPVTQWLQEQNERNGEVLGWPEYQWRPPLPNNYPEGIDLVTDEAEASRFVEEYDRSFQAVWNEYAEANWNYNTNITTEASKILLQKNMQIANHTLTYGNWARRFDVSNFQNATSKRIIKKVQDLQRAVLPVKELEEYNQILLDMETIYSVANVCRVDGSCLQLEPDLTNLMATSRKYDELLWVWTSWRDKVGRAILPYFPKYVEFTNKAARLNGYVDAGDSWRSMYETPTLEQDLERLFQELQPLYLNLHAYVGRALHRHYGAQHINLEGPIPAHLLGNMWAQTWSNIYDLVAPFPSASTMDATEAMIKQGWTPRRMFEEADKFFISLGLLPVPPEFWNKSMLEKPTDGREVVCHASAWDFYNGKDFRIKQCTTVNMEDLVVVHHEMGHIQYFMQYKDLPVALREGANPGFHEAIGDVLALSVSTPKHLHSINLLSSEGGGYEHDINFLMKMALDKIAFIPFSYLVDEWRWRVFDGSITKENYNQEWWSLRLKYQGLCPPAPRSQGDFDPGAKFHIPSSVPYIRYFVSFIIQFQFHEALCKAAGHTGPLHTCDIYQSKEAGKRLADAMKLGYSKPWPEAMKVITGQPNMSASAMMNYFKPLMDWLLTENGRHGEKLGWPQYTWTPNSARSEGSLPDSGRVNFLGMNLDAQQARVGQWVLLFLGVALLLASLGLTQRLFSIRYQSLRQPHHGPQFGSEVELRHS
Experimental: The ACE-inhibitory activity was evaluated using HHL as a substrate by monitoring the released hippuric acid using a spectrophotometric method. Briefly, the reaction system comprised 50 µL of ACE (25 mU), 150 µL of 8.3 mM HHL, and 50 µL of sample solutions. After incubation in a shaking water bath (37 °C) for 1 h, 1 M HCl (250 µL) was added to stop the reaction. The hippuric acid formed was subsequently extracted by 1.4 mL ethyl acetate. After centrifugation, 1 mL of the supernatant was collected and evaporated at 80 °C for 60 min in a vacuum. The residue was then dissolved in 2 mL of distilled water and the absorbance at 228 nm was read. The inhibitory activity was calculated as follows:(1) ACE inhibition % = 1− AS/AC ×100, where AC is the absorbance of the ACE solution without an inhibitor and AS is the absorbance of the mixture-contained samples. The IC50 value, the inhibitor concentration required to inhibit half the ACE activity, was acquired by nonlinear regression from a plot of percentage ACE inhibition versus different inhibitor concentrations.

[5] = test system: ACE; parameters: method as in 2 sources, one per row (each row's own in cited_ref): ref 6 = [6]; PMID 28317757; doi:10.1016/j.foodchem.2017.02.039; 6. Lee S.Y. Hur S.J. Antihypertensive peptides from animal products, marine organisms, and plants Food Chem. 2017 228 506 517 10.1016/j.foodchem.2017.02.039 28317757 ||| ref 25, 30, 31 = [25]; PMID 30229250; doi:10.1039/C8FO00569A; 25. Ling Y. Sun L.P. Zhuang Y.L. Preparation and identification of novel inhibitory angiotensin-I-converting enzyme peptides from tilapia skin gelatin hydrolysates: inhibition kinetics and molecular d || [30]; doi:10.1016/j.lwt.2018.12.059; 30. Bhaskara B. Ananthanarayana L. Jamdar S. Purification, identification, and characterization of novel angiotensin I converting enzyme (ACE) inhibitory peptides from alcalase digested horse gram flo || [31]; doi:10.1016/j.lwt.2016.08.047; 31. Wang X. Chen H. Fu X. Li S. Wei J. A novel antioxidant and ACE inhibitory peptide from rice bran protein: Biochemical characterization and molecular docking study LWT-Food Sci. Technol. 2017 75 93; conditions: peptides from tilapia skin gelatin, horse gram protein, rice bran protein; read-out: IC50 of ACE-inhibitory activity; cited from earlier work
Source text: With the help of databases AHTPDB and BIOPEP, and based on the similarity to the already reported ACE-inhibitory and antioxidant peptides, three peptides, namely […]

Compound: VTSLDLPVLRW [literature antioxidant peptide]
IC50 [1]: 661 µM

Compound: Leu-Ala-Arg-Leu [literature peptide from tilapia gelatin]
Fe2+ chelating ability ([2]; at 1 mg/mL, peptide from tilapia gelatin): 46.53%

IC50 [4]: 38.2 µM
Compound: CC[C@H](C)[C@H](NC(=O)[C@@H](NC(=O)[C@H](CCC(N)=O)NC(=O)CNC(=O)[C@@H](N)CCCNC(=N)N)C(C)C)C(=O)N[C@@H](Cc1ccc(O)cc1)C(=O)N[C@H](C(=O)N[C@@H](CC(C)C)C(=O)O)C(C)C (H-RGQVIYVL-OH)
Side effect on SHRs (heart rate and body weight vs negative control) [3]: no obvious side effect

Compound: QLLLQQ
IC50 [5]: 75 µM

Compound: YYIVS [literature peptide from sweet potato protein]
Fe2+ chelating ability ([2]; at 3 mg/mL, peptide from sweet potato protein): 59.74%

Compound: VGLPNSR
IC50 [5]: 80.9 µM

Compound: HPLDSLCL [literature antioxidant peptide]
IC50 [1]: 74.4 µM
